“And” between values parts separate entries of the source, which are not always exact repeats. Equal values may be shown once.
Legend:
Format in all cases: functional
DU-145 [1] = assay: Cytotoxicity was evaluated against DU-145 human prostate cancer cells at 2 log dose
DU-145 [2] = assay: Cytotoxicity towards DU145 human prostate cancer cell was expressed as median effect dose (MED)
DU-145 [3] = assay: Cytotoxicity was evaluated against DU-145 human prostate cancer cells at 13 uM concentration
DU-145 [4] = assay: Cytotoxicity was evaluated against DU-145 human prostate cancer cells at 0.3 log dose
DU-145 [5] = assay: Cytotoxicity was evaluated against DU-145 human prostate cancer cells at 0.7 log dose
DU-145 [6] = assay: Cytotoxicity was evaluated against DU-145 human prostate cancer cells at 50 uM concentration
DU-145 [7] = assay: Cytotoxicity was evaluated against DU-145 human prostate cancer cells at 1.4 log dose
DU-145 [8] = assay: Cytotoxicity was evaluated against DU-145 human prostate cancer cells at 1.7 log dose
DU-145 [9] = assay: Cytotoxicity was evaluated against DU-145 human prostate cancer cells at 15 uM concentration
DU-145 [10] = assay: Cytotoxicity was evaluated against DU-145 human prostate cancer cells at 20 uM concentration
DU-145 [11] = assay: Cytotoxicity was evaluated against DU-145 human prostate cancer cells at 10 uM concentration
DU-145 [12] = assay: Cytotoxicity was evaluated against DU-145 human prostate cancer cells at 1.5 log dose
DU-145 [13] = assay: Cytotoxicity was evaluated against DU-145 human prostate cancer cells at 110 uM concentration
DU-145 [14] = assay: Cytotoxicity was evaluated against DU-145 human prostate cancer cells at 180 uM concentration
DU-145 [15] = assay: Cytotoxicity was evaluated against DU-145 human prostate cancer cells at 100 uM concentration
DU-145 [16] = assay: Cytotoxicity was evaluated against DU-145 human prostate cancer cells at 35 uM concentration
DU-145 [17] = assay: Cytotoxicity was evaluated against DU-145 human prostate cancer cells at 60 uM concentration

| SMILES | Log effect (DU-145 [1]) | MED (DU-145 [2]) | Surviving fraction (DU-145 [3]) | Log effect (DU-145 [4]) | Log effect (DU-145 [5]) | Surviving fraction (DU-145 [6]) | Log effect (DU-145 [7]) | Log effect (DU-145 [8]) | Surviving fraction (DU-145 [9]) | Surviving fraction (DU-145 [10]) | Surviving fraction (DU-145 [11]) | Log effect (DU-145 [12]) | Surviving fraction (DU-145 [13]) | Surviving fraction (DU-145 [14]) | Surviving fraction (DU-145 [15]) | Surviving fraction (DU-145 [16]) | Surviving fraction (DU-145 [17]) |
| --- | --- | --- | --- | --- | --- | --- | --- | --- | --- | --- | --- | --- | --- | --- | --- | --- | --- |
| CC(=O)N[C@@H](C(=O)NC1C(O)OC(CO)C(O)C1O)C(C)(C)SN=O (stereo not given in full) | 0 and -0.01 | 32 µM | – | – | – | – | – | – | – | – | – | – | – | – | – | – | – |
| CC(=O)N[C@@H](C(=O)N[C@]1(CO)O[C@H](CO)[C@@H](O)[C@@H]1O)C(C)(C)SN=O | – | 8.5 µM | 0.55 | -0.06 | -0.03 | 0.2 | 0.6 | 0.9 | 0.5 | 0.45 | 0.6 | – | – | – | – | – | – |
| CC(=O)N[C@@H](C(=O)O)C(C)(C)SN=O | – | 110 µM | – | – | – | – | 0 | – | – | – | – | 0 | 0.5 | 0.2 | 0.6 | 1 | 1 |

Source: ChEMBL document CHEMBL1131826, “Targeting nitric oxide to cancer cells: cytotoxicity studies of glyco-S-nitrosothiols” (1999)
